Measurements: PMC7194013 (Nature plants, 2020)

Tests used:
Test in all cases: in vitro enzyme assay with purified recombinant CPS and GGPP, GC-FID
Format in all cases: biochemical
ZmCPS2 (An2) = target: T1, ZmCPS2 (An2) (Zea mays, UniProt A0A1D6K6U5)
T1 sequence (A0A1D6K6U5 71-825): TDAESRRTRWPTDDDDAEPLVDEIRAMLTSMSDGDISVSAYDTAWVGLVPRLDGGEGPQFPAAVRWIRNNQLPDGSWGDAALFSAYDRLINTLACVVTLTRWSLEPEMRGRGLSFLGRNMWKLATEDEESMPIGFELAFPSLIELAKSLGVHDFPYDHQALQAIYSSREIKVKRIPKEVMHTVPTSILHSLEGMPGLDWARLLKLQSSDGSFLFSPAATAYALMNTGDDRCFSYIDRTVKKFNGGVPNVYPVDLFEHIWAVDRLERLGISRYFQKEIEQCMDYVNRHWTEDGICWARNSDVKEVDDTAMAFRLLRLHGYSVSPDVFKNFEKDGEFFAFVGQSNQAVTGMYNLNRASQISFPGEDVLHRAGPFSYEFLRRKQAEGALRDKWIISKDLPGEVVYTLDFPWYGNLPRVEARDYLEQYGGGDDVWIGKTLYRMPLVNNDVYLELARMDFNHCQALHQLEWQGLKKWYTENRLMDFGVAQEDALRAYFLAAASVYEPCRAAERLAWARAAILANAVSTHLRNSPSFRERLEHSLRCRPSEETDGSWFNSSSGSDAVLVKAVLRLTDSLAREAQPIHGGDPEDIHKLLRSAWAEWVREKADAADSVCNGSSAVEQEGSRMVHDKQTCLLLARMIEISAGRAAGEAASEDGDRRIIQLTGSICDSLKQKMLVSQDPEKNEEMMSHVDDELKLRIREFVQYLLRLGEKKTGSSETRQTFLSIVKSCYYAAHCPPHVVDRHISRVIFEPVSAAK

[1] = target: T2, AtCPS (ent-copalyl diphosphate synthase, GA1) (Arabidopsis thaliana, UniProt Q38802)
T2 sequence (Q38802 85-802): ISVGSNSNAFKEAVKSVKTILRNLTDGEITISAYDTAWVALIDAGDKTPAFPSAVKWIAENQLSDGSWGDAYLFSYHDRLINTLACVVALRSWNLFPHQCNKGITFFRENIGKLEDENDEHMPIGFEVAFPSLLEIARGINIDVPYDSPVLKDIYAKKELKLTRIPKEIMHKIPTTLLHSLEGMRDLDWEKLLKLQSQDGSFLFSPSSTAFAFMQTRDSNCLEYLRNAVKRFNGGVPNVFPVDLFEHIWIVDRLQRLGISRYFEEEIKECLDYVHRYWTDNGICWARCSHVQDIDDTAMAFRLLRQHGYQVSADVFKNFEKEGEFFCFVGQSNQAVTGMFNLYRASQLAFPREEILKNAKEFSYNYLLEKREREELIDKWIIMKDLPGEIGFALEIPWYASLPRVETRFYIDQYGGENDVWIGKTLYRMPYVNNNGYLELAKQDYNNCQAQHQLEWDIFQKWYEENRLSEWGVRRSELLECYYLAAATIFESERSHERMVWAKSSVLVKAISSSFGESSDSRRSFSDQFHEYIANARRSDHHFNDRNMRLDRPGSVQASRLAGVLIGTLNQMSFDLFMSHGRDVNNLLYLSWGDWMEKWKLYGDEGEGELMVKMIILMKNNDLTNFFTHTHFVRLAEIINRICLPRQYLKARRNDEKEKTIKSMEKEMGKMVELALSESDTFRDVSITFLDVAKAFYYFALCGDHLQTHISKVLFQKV

ZmCPS1 (An1) = target: T3, ZmCPS1 (An1) (Zea mays, UniProt Q41771)
T3 sequence (Q41771 64-824): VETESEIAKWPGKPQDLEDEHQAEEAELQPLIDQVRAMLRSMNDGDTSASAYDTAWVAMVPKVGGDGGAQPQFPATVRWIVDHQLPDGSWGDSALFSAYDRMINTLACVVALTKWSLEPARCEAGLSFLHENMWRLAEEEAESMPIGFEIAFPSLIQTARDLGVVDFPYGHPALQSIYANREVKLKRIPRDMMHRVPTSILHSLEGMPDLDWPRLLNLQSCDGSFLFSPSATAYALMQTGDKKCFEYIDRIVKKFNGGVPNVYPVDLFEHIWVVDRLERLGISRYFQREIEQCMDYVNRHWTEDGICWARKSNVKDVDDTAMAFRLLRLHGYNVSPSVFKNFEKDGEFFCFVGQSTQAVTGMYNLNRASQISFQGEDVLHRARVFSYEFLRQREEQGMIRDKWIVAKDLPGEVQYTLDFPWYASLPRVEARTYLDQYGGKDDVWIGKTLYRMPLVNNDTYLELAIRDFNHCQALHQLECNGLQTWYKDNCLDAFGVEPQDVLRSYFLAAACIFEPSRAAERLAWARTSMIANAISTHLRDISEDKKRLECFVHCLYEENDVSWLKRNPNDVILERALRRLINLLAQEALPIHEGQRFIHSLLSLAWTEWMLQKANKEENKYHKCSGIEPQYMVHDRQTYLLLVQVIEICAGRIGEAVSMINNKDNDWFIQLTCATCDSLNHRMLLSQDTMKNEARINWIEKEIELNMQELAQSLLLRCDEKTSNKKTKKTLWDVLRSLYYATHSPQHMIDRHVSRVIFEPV

With `C[N+]1(C)CCCCC1` [DPC, 1,1-dimethyl-piperidinium chloride] the IC50 (ZmCPS2 (An2)) was 4 mM, the IC50 [1] was 30 µM and the IC50 (ZmCPS1 (An1)) was 2 mM.
